According to US11807627B2, “Morphic forms of complement factor D inhibitors” (priority 2018, dated 2023):

Columns and labels:
Format in all cases: physicochemical
[1] = Compression study (25 kN, 50 kN; Example 13)
Method: A mixture of Form A ±Form B and Form B were compressed using a specac IR die press. A total of approximately 100 mg (50 mg A ±50 mg B and 100 mg B) were weighed into separate 2 mL glass vials. The solids were then placed into the IR dies and pressed under 25 kN and 50 kN for about 10-15 seconds. After pressing to 25 kN, material was removed from the dies and ground slightly. A sub-sample was taken and XRPD analysis was collected. Material was then placed back into the dies and pressed to 50 kN. After pressing to 50 kN, material was removed from the dies and ground slightly before collecting XRPD analysis. Both samples observed a small color change from white to off-white after being pressed to 25 kN. […] No single form was observed when compressing a mixture of Forms A and form B material, but a decrease in crystallinity was observed when exerting 50 kN on the mixture.

[2] = Polarized light microscopy (PLM); settings: Table 27A
Method: The presence of crystallinity (birefringence) was determined using an Olympus BX50 microscope, equipped with cross-polarizing lenses and a Motic camera. Images were captured using Motic Images Plus 2.0. All images were recorded using the 20×objective, unless otherwise stated. All samples were prepared using silicone oil and covered with a cover slip before PLM analysis was completed.

[3] = Polymorph study: crash cooling
Method: Saturated solutions of Compound 3 produced from temperature cycling experiments were placed into a fridge to crash cool to 4° C. After about 4 days, observations were made and solids produced were isolated using centrifuge filtration and analyzed by XRPD. Where no solids were recovered, solutions were placed into a freezer (−20° C.) for 14 days. Any solids produced were isolated by centrifuge filtration and analyzed by XRPD (Table 19).

[4] = Variable humidity XRPD (VH-XRPD); settings: between 0 and 90% RH
Method: […] analysis was carried out on a Philips X'Pert Pro Multipurpose diffractometer equipped with a humidity chamber. The samples were scanned between 4 and 35.99°2θ using Cu K radiation (α1λ=1.54060 Å; α2=1.54443 Å; β=1.39225 Å; α1; α2 ratio=0.5) running in Bragg-Brentano geometry (step size 0.008°2θ) using 40 kV/40 mA generator settings. Table 10 details the humidity program used.

[5] = Hydration study in 2-propanol/water systems
Method: A hydration study of Compound 3 Form A was conducted using 4 different aw 2-propanol/water solvent systems. Approximately 20 mg of Compound 3 Form A was weighed into four 2 mL glass vials. An appropriate volume of solvent system was added to the solids and samples were agitated for about 48 hours under ambient conditions. After 48 hours, solids were isolated using centrifuge filtration and analyzed by XRPD. […] (FIG. 32)

CC(=O)c1nn(CC(=O)N2[C@H](C(=O)Nc3nc(Br)ccc3C)C[C@@]3(C)C[C@@H]23)c2ccc(-c3cnc(C)nc3)cc12 [Form B]
Birefringent rods: PLM [2]
Form B: XRPD Results ([1]; Pressure Exerted 25 kN) | XRPD Results ([1]; Pressure Exerted 50 kN)
did not change under pressure: Form change under compression (XRPD) ([1]; 25 kN and 50 kN)

CC(=O)c1nn(CC(=O)N2[C@H](C(=O)Nc3nc(Br)ccc3C)C[C@@]3(C)C[C@@H]23)c2ccc(-c3cnc(C)nc3)cc12 [Compound 3, (1R,3S,5R)-2-(2-(3-acetyl-5-(2-methylpyrimidin-5-yl)-1H-indazol-1-yl)acetyl)-N-(6-bromo-3-methylpyridin-2-yl)-5-methyl-2-azabicyclo[3.1.0]hexane-3-carboxamide]
Form A: Crystallization technique: Cooling ([3]; 1-Butanol) | Crystallization technique: Cooling ([3]; 2-Propanol) | Crystallization technique: Cooling ([3]; 50% Ethanol / 50% Heptane (% v/v)) | Crystallization technique: Cooling ([3]; 95% 2-Propanol / 5% Heptane (% v/v)) | Crystallization technique: Cooling ([3]; Acetone)
Amorphous: Crystallization technique: Cooling ([3]; 40% Ethanol / 60% Water (% v/v) calc. aw = 0.7) | Crystallization technique: Cooling ([3]; Ethanol) | Crystallization technique: Cooling ([3]; Ethyl Acetate (dry)) | Crystallization technique: Cooling ([3]; Toluene)
Form A (WC): Crystallization technique: Cooling ([3]; 50% 2-Propanol / 50% Heptane (% v/v), WC = weakly crystalline)
Clear solution: Crystallization technique: Cooling ([3]; 2-Methyl Tetrahydrofuran) | Crystallization technique: Cooling ([3]; 50% Acetonitrile / 50% Water (% v/v) calc. aw = 0.9) | Crystallization technique: Cooling ([3]; 70% 2-Propanol / 30% Heptane (% v/v)) | Crystallization technique: Cooling ([3]; 70% 2-Propanol / 30% Water (% v/v) aw = 0.8) | Crystallization technique: Cooling ([3]; 95% Heptane / 5% 2-Propanol (% v/v)) | Crystallization technique: Cooling ([3]; 95% Methanol / 5% Water (% v/v) calc. aw = 0.2) | Crystallization technique: Cooling ([3]; Acetonitrile) | Crystallization technique: Cooling ([3]; Methanol) | Crystallization technique: Cooling ([3]; Methylethyl Ketone) | Crystallization technique: Cooling ([3]; Methylisobutyl Ketone) | Crystallization technique: Cooling ([3]; Tetrahydrofuran) | Crystallization technique: Cooling ([3]; n-Heptane) | Crystallization technique: Cooling ([3]; tert-Butylmethyl Ether)

CC(=O)c1nn(CC(=O)N2[C@H](C(=O)Nc3nc(Br)ccc3C)C[C@@]3(C)C[C@@H]23)c2ccc(-c3cnc(C)nc3)cc12 [Compound 3 Form A]
Predominantly amorphous: Hydration study: XRPD results ([5]; Water activity (aw) 0.704) | Hydration study: XRPD results ([5]; Water activity (aw) 0.910)
Form A: Hydration study: XRPD results ([5]; Water activity (aw) 0.354, 2-propanol/water, about 48 hours, ambient) | Hydration study: XRPD results ([5]; Water activity (aw) 0.526)
no changes in form: VH-XRPD: change in form with humidity [4]
